pIC50: −log10 of the molar value.
Key:
Assay in all cases: PubChem AID 588490
[1] = target: Protein-arginine deiminase type-3 (Homo sapiens) (UniProt Q9ULW8); conditions: recombinant PAD1-4, BAEE citrulline colorimetric absorbance; PAD3
[2] = target: Protein-arginine deiminase type-2 (Homo sapiens) (UniProt Q9Y2J8); conditions: recombinant PAD1-4, BAEE citrulline colorimetric absorbance; PAD2
[3] = target: Protein-arginine deiminase type-1 (Homo sapiens) (UniProt Q9ULC6); conditions: recombinant PAD1-4, BAEE citrulline colorimetric absorbance; PAD1
Protein-arginine deiminase type-1 (Homo sapiens), sequence (Q9ULC6 whole entry, looked up): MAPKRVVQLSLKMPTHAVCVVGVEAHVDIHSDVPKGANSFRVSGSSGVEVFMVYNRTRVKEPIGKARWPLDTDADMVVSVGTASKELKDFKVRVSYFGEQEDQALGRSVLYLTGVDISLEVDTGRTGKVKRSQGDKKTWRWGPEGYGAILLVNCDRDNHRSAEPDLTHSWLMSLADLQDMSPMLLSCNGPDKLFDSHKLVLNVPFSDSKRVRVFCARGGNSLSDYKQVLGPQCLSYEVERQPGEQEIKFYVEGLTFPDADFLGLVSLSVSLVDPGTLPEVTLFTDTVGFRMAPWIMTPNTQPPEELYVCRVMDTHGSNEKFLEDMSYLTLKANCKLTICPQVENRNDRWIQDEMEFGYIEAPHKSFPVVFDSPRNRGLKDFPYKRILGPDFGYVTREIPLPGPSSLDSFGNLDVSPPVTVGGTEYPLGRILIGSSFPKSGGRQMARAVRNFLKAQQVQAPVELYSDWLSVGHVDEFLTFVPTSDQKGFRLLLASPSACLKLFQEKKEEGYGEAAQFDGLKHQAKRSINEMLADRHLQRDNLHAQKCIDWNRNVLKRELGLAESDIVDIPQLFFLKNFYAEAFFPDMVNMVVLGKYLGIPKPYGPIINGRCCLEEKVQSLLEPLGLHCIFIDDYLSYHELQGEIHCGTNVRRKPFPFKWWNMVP

Protein-arginine deiminase type-2 (Homo sapiens), sequence (Q9Y2J8 whole entry, looked up): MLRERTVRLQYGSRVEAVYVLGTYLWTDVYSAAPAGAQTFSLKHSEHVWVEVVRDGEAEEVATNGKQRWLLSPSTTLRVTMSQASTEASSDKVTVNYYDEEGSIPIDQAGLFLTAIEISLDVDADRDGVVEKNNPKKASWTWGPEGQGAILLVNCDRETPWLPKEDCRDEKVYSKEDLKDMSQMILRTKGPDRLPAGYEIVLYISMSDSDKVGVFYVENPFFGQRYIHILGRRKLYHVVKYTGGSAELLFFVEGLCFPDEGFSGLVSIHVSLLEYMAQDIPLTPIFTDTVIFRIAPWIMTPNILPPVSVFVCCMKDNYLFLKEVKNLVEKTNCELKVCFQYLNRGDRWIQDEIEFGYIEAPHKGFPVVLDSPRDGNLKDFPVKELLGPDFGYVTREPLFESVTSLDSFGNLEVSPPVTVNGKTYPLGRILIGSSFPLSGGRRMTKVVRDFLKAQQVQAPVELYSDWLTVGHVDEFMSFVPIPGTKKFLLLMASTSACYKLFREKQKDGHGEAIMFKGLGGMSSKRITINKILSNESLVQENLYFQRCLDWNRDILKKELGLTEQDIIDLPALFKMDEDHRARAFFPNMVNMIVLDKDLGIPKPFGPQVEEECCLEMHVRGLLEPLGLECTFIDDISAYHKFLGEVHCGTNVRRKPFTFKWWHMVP
Protein-arginine deiminase type-3 (Homo sapiens), sequence (Q9ULW8 whole entry, looked up): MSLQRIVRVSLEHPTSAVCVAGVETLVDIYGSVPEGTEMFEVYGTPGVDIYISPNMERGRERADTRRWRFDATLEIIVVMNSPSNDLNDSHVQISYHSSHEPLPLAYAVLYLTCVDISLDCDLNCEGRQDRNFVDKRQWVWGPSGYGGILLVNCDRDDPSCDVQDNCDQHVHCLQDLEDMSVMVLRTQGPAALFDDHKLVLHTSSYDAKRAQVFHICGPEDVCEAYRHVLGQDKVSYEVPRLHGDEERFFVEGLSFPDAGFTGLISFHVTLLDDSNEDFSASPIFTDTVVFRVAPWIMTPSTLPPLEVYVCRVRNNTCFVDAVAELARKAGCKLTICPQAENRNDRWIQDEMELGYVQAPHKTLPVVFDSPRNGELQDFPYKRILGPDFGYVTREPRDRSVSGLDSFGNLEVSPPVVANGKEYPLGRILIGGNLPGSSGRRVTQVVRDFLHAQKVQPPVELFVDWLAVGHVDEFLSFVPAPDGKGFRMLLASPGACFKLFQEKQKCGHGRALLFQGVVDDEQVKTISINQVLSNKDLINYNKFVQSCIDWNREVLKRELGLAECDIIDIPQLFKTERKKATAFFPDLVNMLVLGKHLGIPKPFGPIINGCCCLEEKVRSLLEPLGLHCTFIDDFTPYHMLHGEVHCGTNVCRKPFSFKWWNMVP

pIC50 [1]: 6.15 | pIC50 [2]: 6.70 | pIC50 [3]: 7.15
Structure (SMILES): NC1=CC(=O)c2ccc(-c3cccc(C(=O)O)n3)nc2C1=O
